Experimental data from paper PMC5845537 (Frontiers in Pharmacology, 2018).

Key:
Long-Evans rats = assay: Attentional set-shifting task (AST) in subchronic PCP-treated rats; assay type: in vivo, rat
Description: (§1) Subchronic PCP treatment: The subPCP administration regimen used in rats was conducted as described in ([Goetghebeur and Dias, 2009]), which is a reliable method for inducing deficits in our hands. Rats in the subPCP experiments received injections of 5 mg/mL PCP or vehicle (saline) s.c. at a 1 mL/kg injection volume twice per day for 7 days. […] The mouse subPCP regimen was conducted as described in [Pedersen et al. (2014)]. Briefly, mice received vehicle or PCP (1.3 mg/mL concentration, 10 mL/kg injection volume) s.c once per day for 14 days followed by a 7-day washout prior to experimentation.
Each test used male Long-Evans rats (Charles River, United States) aged 5–6 weeks when arriving at the research facility.
The attentional set-shifting test (AST) methods used here were adapted from [Goetghebeur and Dias (2009)]. The apparatus used for the AST test was a 44 cm × 64 cm × 30 cm black non-transparent Perspex test box, divided into 3 equal-sized areas (a starting area separated from a choice area subdivided in two). In the choice area, two 11 cm diameter terracotta pots were placed recessed into the box floor (with a 2 cm lip remaining above the floor) and separated by a divider. Odor (oils from The Body Shop®, United Kingdom) and media cues (not previously presented to the rats) were added to the pots.
Beginning on day 3 after the cessation of PCP administration, rats were subjected to a habituation period and trained to dig for a diet reward (half a Honey Loop cereal, Nestlé®) in terracotta pots filled with sawdust. On day 7 of PCP washout, rats were subjected to a single training session in which they were required to discriminate between two pots in order to find the reward. These discriminations were either based on differences in the digging media or the pot’s odor. On day 8 rats were presented with a series of increasingly difficult discriminations: a simple discrimination (SD), a compound discrimination (CD), two intra-dimensional shifts (ID1, ID2), an intra-dimensional shift reversal (ID2R), an extra-dimensional shift (ED) and an extra-dimensional shift reversal (EDR; see Table 1). Rats were required to meet a training criterion before moving on to a new discrimination type (for specifics, see Statistical Analysis, below).
The first trial of each discrimination stage was a discovery trial in which rats were allowed to dig in both pots, and to self-correct if digging in the wrong pot. Rats were only given one discovery trial. The discovery trial was included in the trials to criterion if the rat dug first in the correct pot, but not if the rat self-corrected an incorrect initial dig.
In the acute vortioxetine study, prior to the start of behavioral experiments on Day 8 of washout from PCP treatment, animals were randomly administered either 20% CD (Veh), […], or 64 mg/kg modafinil 30 min p.o. as described above (included as a positive control). Thus, the treatment groups in the acute vortioxetine study were as follows: Veh/Veh, PCP/Veh, PCP/1 mg/kg vortioxetine, PCP/3 mg/kg vortioxetine, PCP/10 mg/kg vortioxetine, or PCP/64 mg/kg modafinil.
Food dosing lasted from the first day of sub-chronic PCP administration and until the last day of the washout period (total of 14 days). After the end of the washout period where behavioral testing started, rats were fed with the same conditioned diet, however, under food restriction (∼11 g of diet per day per rat). In addition, some PCP-treated animals were fed vehicle food, but received acute injections of either 10 mg/kg vortioxetine, or 64 mg/kg modafinil, as described above. The treatment groups for the subchronic vortioxetine administration study were as follows: Veh/Veh, PCP/Veh, PCP/0.22 g/kg vortioxetine food, PCP/1.8 g/kg vortioxetine food, PCP/10 mg/kg vortioxetine 1 h s.c., or PCP/64 mg/kg 30 min p.o.
A third experiment was conducted to examine the effects of acute SERT inhibition or 5-HT3 receptor antagonism on subPCP-induced AST impairments. […]

C57BL/6NCrlBr mice = assay: Mouse object placement (OP) task after subchronic PCP; assay type: in vivo
Description: as §1
Object placement and OR tasks in mice were executed in Perspex boxes measuring 40 × 40 cm with dark gray walls and a white floor. The tests were conducted during the light phase, yet in a subdued light (≈20 lux) and with the radio turned on in the background. Each trial was recorder by a camera mounted above the test arenas and later scored manually.
Objects in the mouse OP task consisted of small stork sculptures made of plaster, which were 11.5 cm in height, with a roughly rectangle-shaped base 7.5 cm in length and 4.8 cm in width. For the mouse OR task, objects consisted of (1) small cylindrical pepper mills (purchased empty, having never contained spice) made of clear plastic (10.5 cm in height, 4.5 cm diameter), and (2) small salt shakers made of light blue glass (again, purchased empty; 11.5 cm in height, 4.5 cm diameter). […]
The primary dependent measure for the OR and object placement tasks was a novel object or novel placement preference score, which were calculated from raw object investigation times using the following equation: Preference Score = ITN/(ITN + ITF)^∗100, where ITN represents the investigation time for the novel object or placement, and ITF represents the investigation for the familiar object or placement. Total exploration times from the information and test trials were analyzed for OP and OR experiments. Preference score and total exploration time data was analyzed for treatment group differences using a one-way between-subjects ANOVA. […]

[1] = subchronic vortioxetine study, subPCP vs Veh/Veh, p < 0.001
[2] = subchronic high-dose 1.8 g vortioxetine/kg food weight p.o., p < 0.001
[3] = subchronic low-dose 0.18 g vortioxetine/kg food weight p.o., p < 0.001
[4] = subchronic vortioxetine study, acute 10 mg/kg 1 h s.c., p < 0.001

SMILES	trials to reach criterion, EDR discrimination (Long-Evans rats; acute vortioxetine study, subPCP/vehicle vs vehicle/vehicle)	trials to reach criterion, ED discrimination (Long-Evans rats; acute vortioxetine study, subPCP/vehicle vs vehicle/vehicle, PCP 5 mg/kg s.c. twice per day 7 days, 7-day washout, p < 0.01)	trials to reach criterion, EDR discrimination (Long-Evans rats; ondansetron/escitalopram study, subPCP vs vehicle/vehicle)	trials to reach criterion, ED discrimination (Long-Evans rats; ondansetron/escitalopram study, subPCP vs vehicle/vehicle, p < 0.001)	trials to reach criterion, ED discrimination (Long-Evans rats; [1])	trials to reach criterion, EDR discrimination (Long-Evans rats; [1])	novel placement preference score (C57BL/6NCrlBr mice; subPCP/vehicle vs vehicle/vehicle mice, p < 0.01)	reversal of subPCP-induced impairment, ED discrimination (trials to criterion) (Long-Evans rats; acute vortioxetine study, 1 mg/kg 1 h s.c., vs PCP/Veh)	reversal of subPCP-induced impairment, ED discrimination (trials to criterion) (Long-Evans rats; acute vortioxetine study, 3 mg/kg 1 h s.c., vs PCP/Veh)	reversal of subPCP-induced impairment, ED discrimination (trials to criterion) (Long-Evans rats; acute vortioxetine study, 10 mg/kg 1 h s.c., vs PCP/Veh)	reversal of subPCP-induced impairment, EDR discrimination (trials to criterion) (Long-Evans rats; acute vortioxetine study, acute 1, 3, 10 mg/kg 1 h s.c., vs PCP/Veh)	attenuation of subPCP-induced impairment, ED discrimination (Long-Evans rats; [2])	attenuation of subPCP-induced impairment, EDR discrimination (Long-Evans rats; [2])	attenuation of subPCP-induced impairment, ED discrimination (Long-Evans rats; [3])	attenuation of subPCP-induced impairment, EDR discrimination (Long-Evans rats; [3])	normalization of AST performance in subPCP-treated rats, ED (Long-Evans rats; [4])	normalization of AST performance in subPCP-treated rats, EDR (Long-Evans rats; [4])	attenuation of subPCP-induced object placement task impairment (C57BL/6NCrlBr mice; subPCP-treated mice, 10 mg/kg s.c. bolus plus seven days 0.6 g/kg chow, p < 0.05)	object placement task performance vs vehicle/vehicle (C57BL/6NCrlBr mice; vortioxetine/vehicle group, mice without PCP)
Cl.c1ccc(C2(N3CCCCC3)CCCCC2)cc1 [PCP, 1-(1-phenylcyclohexyl)-piperidine hydrochloride]	significant increases	significant increase	failed to induce a significant increase	significant increase	significant increase	significant increase	significantly reduced novel placement preference scores												
Cc1ccc(Sc2ccccc2N2CCNCC2)c(C)c1 [vortioxetine]								significantly reversed	significantly reversed	significantly reversed	neither acute vortioxetine nor modafinil significantly reversed	significantly attenuated	significantly attenuated	significantly attenuated	significantly attenuated	significant normalization	significant normalization	significantly attenuated	did not perform significantly better
